These results are taken from the supplement of paper PMC12137928.

The assay deals with HCT116. The note with it: 72 h. The procedure, abridged: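 HCT116 cells were seeded at 250 per well in 1536-well plates and left 5 h to attach. CellTiter-Glo luminescence was scaled to vehicle (0%) and positive control (-100%), then pattern-corrected. IC50 and maximal efficacy came from four-parameter Hill fits.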

Counter-ions that a name gives are not always drawn.

Consider `OCCCNc1ccccc1` [3-Anilinopropan-1-ol], for which the IC50 cell viability runs as follows: (ICRF193 0 nM) greater than 45.8 µM; (ICRF193 200 nM) greater than 45.8 µM.

Take `CC(=O)Nc1c(I)c(C(=O)N[C@H]2C(O)O[C@H](CO)[C@@H](O)[C@@H]2O)c(I)c(N(C)C(C)=O)c1I` (stereo partly specified) [Metrizamide]: the IC50 cell viability was greater than 45.8 µM (ICRF193 0 nM) and greater than 45.8 µM (ICRF193 200 nM).

Regarding `CCN[C@@H]1C[C@H](N)[C@@H](O[C@H]2OC(CN)=CC[C@H]2N)[C@H](O)[C@H]1O[C@H]1OC[C@](C)(O)[C@H](NC)[C@H]1O` [Netilmicin sulfate], the IC50 cell viability was greater than 45.8 µM (ICRF193 0 nM) and greater than 45.8 µM (ICRF193 200 nM).

Compound `CN1CCC(=C2c3ccccc3CC(=O)c3sccc32)CC1` [Ketotifen] showed an IC50 cell viability (ICRF193 0 nM) greater than 45.8 µM and an IC50 cell viability (ICRF193 200 nM) greater than 45.8 µM.

`COP(=S)(OC)Oc1ccc(SC)c(C)c1` [Fenthion] returned an IC50 cell viability (ICRF193 0 nM) greater than 45.8 µM and an IC50 cell viability (ICRF193 200 nM) greater than 45.8 µM.

For `CNC(=C[N+](=O)[O-])NCCSCc1ccc(CN(C)C)o1` [Ranitidine], the IC50 cell viability is greater than 45.8 µM (ICRF193 0 nM) and greater than 45.8 µM (ICRF193 200 nM).

In the case of `CC(COc1ccc(Oc2ccccc2)cc1)Oc1ccccn1` (stereo unspecified) [Pyriproxyfen], the IC50 cell viability was greater than 45.8 µM (ICRF193 0 nM) and greater than 45.8 µM (ICRF193 200 nM).

Turning to `C=C(c1ccc(C(=O)O)cc1)c1cc2c(cc1C)C(C)(C)CCC2(C)C` [Bexarotene], the IC50 cell viability (ICRF193 0 nM) was greater than 45.8 µM and the IC50 cell viability (ICRF193 200 nM) was greater than 45.8 µM.

With `O=C(O)c1ccccc1Nc1cccc(C(F)(F)F)c1` [Flufenamic acid], the IC50 cell viability is greater than 45.8 µM (ICRF193 0 nM) and greater than 45.8 µM (ICRF193 200 nM).

Consider `CN1CCCN=C1COC(=O)C(O)(c1ccccc1)C1CCCCC1` (stereo unspecified) [Oxyphencyclimine hydrochloride], for which the IC50 cell viability by setting is: (ICRF193 0 nM) greater than 45.8 µM; (ICRF193 200 nM) greater than 45.8 µM.

Compound `COCC1=C(C(=O)OC(C)OC(=O)OC(C)C)N2C(=O)[C@@H](NC(=O)/C(=N\OC)c3csc(N)n3)[C@H]2SC1` (stereo partly specified) [CEFPODOXIME PROXETIL] yielded an IC50 cell viability (ICRF193 0 nM) greater than 45.8 µM and an IC50 cell viability (ICRF193 200 nM) greater than 45.8 µM.

`CN1CCC[C@@H]1Cc1c[nH]c2ccc(CCS(=O)(=O)c3ccccc3)cc12` [Eletriptan] gave an IC50 cell viability (ICRF193 0 nM) greater than 45.8 µM and an IC50 cell viability (ICRF193 200 nM) greater than 45.8 µM.

With `COc1cc(N)c(Cl)cc1C(=O)NC1CCN(CCCOc2ccc(F)cc2)CC1OC` (stereo unspecified) [Cisapride], the IC50 cell viability was greater than 45.8 µM (ICRF193 0 nM) and greater than 45.8 µM (ICRF193 200 nM).

For the compound `O=C(O)CCn1c2c(c3ccccc31)C[C@H](NS(=O)(=O)c1ccc(F)cc1)CC2` [Ramatroban], the IC50 cell viability (ICRF193 0 nM) was greater than 45.8 µM and the IC50 cell viability (ICRF193 200 nM) was greater than 45.8 µM.

For the compound `CC(C)(CO)[C@@H](O)C(=O)NCCCC(=O)O` [Calcium hopantenate], the IC50 cell viability (ICRF193 0 nM) is greater than 45.8 µM and the IC50 cell viability (ICRF193 200 nM) is greater than 45.8 µM.

On to `O=C([O-])CC([S-])C(=O)[O-].[Au+].[Na+].[Na+]` (stereo unspecified) [Sodium aurothiomalate(I)], for which the IC50 cell viability is, setting by setting: (ICRF193 0 nM) greater than 45.8 µM; (ICRF193 200 nM) greater than 45.8 µM.

In the case of `NC(=O)N/N=C/c1ccc([N+](=O)[O-])o1` [Nitrofurazone], the IC50 cell viability was greater than 45.8 µM (ICRF193 0 nM) and greater than 45.8 µM (ICRF193 200 nM).

Consider `CN1CCC(=C2c3ccccc3C=Cc3ccccc32)CC1` [Cyproheptadine hydrochloride], for which the IC50 cell viability reads like this: (ICRF193 0 nM) greater than 45.8 µM; (ICRF193 200 nM) greater than 45.8 µM.

In the case of `Cc1ccccc1-n1c(CF)nc2ccc(N)cc2c1=O` [Afloqualone], the IC50 cell viability by setting is: (ICRF193 0 nM) greater than 45.8 µM; (ICRF193 200 nM) greater than 45.8 µM.

Consider `CCCCOc1ccc(C(=O)CCN2CCCCC2)cc1` [Dyclonine hydrochloride], for which the IC50 cell viability by setting is: (ICRF193 0 nM) greater than 45.8 µM; (ICRF193 200 nM) greater than 45.8 µM.

On to `C[N+](C)(C)CCCCCCCCCC[N+](C)(C)C` [Decamethonium bromide], for which the IC50 cell viability runs as follows: (ICRF193 0 nM) greater than 45.8 µM; (ICRF193 200 nM) greater than 45.8 µM.

Regarding `Cc1onc(-c2c(F)cccc2Cl)c1C(=O)N[C@@H]1C(=O)N2[C@@H]1SC(C)(C)[C@@H]2C(=O)O` [Flucloxacillin sodium], the IC50 cell viability by setting is: (ICRF193 0 nM) greater than 45.8 µM; (ICRF193 200 nM) greater than 45.8 µM.

`COC(=S)NCCn1c([N+](=O)[O-])cnc1C` [CARNIDAZOLE] gave an IC50 cell viability (ICRF193 0 nM) greater than 45.8 µM and an IC50 cell viability (ICRF193 200 nM) greater than 45.8 µM.

In the case of `C1N2CN3CN1CN(C2)C3` [Methenamine], the IC50 cell viability runs as follows: (ICRF193 0 nM) greater than 45.8 µM; (ICRF193 200 nM) greater than 45.8 µM.

For `O=C(O)Cc1ccccc1Nc1c(Cl)cccc1Cl` [Diclofenac sodium], the IC50 cell viability reads like this: (ICRF193 0 nM) greater than 45.8 µM; (ICRF193 200 nM) greater than 45.8 µM.

On to `CCCCCCCCCCCCOS(=O)(=O)[O-].[Na+]` [Sodium dodecyl sulfate], for which the IC50 cell viability is greater than 45.8 µM (ICRF193 0 nM) and greater than 45.8 µM (ICRF193 200 nM).

As for `COc1ccc(O)cc1` [4-Methoxyphenol], the IC50 cell viability is, setting by setting: (ICRF193 0 nM) greater than 45.8 µM; (ICRF193 200 nM) greater than 45.8 µM.

As for `NC(=O)NO` [Hydroxyurea], the IC50 cell viability by setting is: (ICRF193 0 nM) greater than 45.8 µM; (ICRF193 200 nM) greater than 45.8 µM.
